This note sets out measurements from patent US7981512B2, “Organic polymer-magnetic particles and process for producing same” (JSR Corporation, priority 2006, dated 2011).

The conditions of the data set: distilled water. On the procedure: In the invention, the solubility in water at 25° C. of the monomer is determined by slowly adding the monomer in question to distilled water at 25° C. while stirring until the monomer separates from the water. The amount (% by mass) of the monomer in the solution immediately before separation is defined as the solubility.

As to `C=C(C)C(=O)O` [methacrylic acid], the “solubility in water at 25° C.” value was 100 % by mass.

As for `C=C(C)C(=O)OCCOC(=O)c1ccccc1C(=O)O` [2-methacryloyloxyethyl phthalate], the “solubility in water at 25° C.” value is given as “less than 0.2 % by mass”.
